≈ marks a conversion by molar mass, not a printed value. Entries after “also recorded” stand apart in the source; their conditions may differ. Where two headings read alike, the source gives them in different places. Positions of bridges follow the written chain, without caps; N, C: chain ends. Residues, ends and D or L forms follow the SMILES beside them.
Assays:
E. coli RNA polymerase = E. coli RNA polymerase (Escherichia coli, UniProt P0A8T7+P0A8V2); assay: in vitro abortive transcription initiation assay (RNAP inhibition); format: biochemical
Burkholderia multivorans = format: cell-based
B. pseudomallei = format: cell-based, Burkholderia pseudomallei
[1] = tested on: Burkholderia multivorans ATCC 17616
[2] = tested on: Burkholderia thailandensis E264
[3] = tested on: Burkholderia gladioli ATCC 10248
[4] = tested on: Burkholderia pseudomallei Bp82
[5] = tested on: Burkholderia pseudomallei 576mn
[6] = tested on: Enterohemorrhagic Escherichia coli O157:H7 TUV-93-0
[7] = tested on: Salmonella enterica serovar newport
[8] = tested on: Pseudomonas aeruginosa PAO1
B. cepacia ATCC 25416 [9] = tested on: B. cepacia ATCC 25416
[10] = tested on: B. multivorans ATCC 17616
B. mallei Old ISU [11] = tested on: B. mallei Old ISU
B. mallei NVSL 86-567-2 [12] = tested on: B. mallei NVSL 86-567-2
B. cepacia ATCC 25416 [13] = tested on: B. cepacia ATCC 25416; remark: listed apart in the source
[14] = tested on: B. multivorans ATCC 17616; remark: listed apart in the source
B. mallei Old ISU [15] = tested on: B. mallei Old ISU; remark: listed apart in the source
B. mallei NVSL 86-567-2 [16] = tested on: B. mallei NVSL 86-567-2; remark: listed apart in the source
[17] = thermostability analysis via LC-MS; details: heated to 95° C.; 2 h for the LC-MS sample
[18] = tested on: Enterohemorrhagic Escherichia coli O157:H7 TUV-93-0; details: E. coli; cited from earlier work
[19] = tested on: Salmonella enterica serovar newport; details: cited from earlier work

Chain of E. coli RNA polymerase (P0A8T7 whole entry): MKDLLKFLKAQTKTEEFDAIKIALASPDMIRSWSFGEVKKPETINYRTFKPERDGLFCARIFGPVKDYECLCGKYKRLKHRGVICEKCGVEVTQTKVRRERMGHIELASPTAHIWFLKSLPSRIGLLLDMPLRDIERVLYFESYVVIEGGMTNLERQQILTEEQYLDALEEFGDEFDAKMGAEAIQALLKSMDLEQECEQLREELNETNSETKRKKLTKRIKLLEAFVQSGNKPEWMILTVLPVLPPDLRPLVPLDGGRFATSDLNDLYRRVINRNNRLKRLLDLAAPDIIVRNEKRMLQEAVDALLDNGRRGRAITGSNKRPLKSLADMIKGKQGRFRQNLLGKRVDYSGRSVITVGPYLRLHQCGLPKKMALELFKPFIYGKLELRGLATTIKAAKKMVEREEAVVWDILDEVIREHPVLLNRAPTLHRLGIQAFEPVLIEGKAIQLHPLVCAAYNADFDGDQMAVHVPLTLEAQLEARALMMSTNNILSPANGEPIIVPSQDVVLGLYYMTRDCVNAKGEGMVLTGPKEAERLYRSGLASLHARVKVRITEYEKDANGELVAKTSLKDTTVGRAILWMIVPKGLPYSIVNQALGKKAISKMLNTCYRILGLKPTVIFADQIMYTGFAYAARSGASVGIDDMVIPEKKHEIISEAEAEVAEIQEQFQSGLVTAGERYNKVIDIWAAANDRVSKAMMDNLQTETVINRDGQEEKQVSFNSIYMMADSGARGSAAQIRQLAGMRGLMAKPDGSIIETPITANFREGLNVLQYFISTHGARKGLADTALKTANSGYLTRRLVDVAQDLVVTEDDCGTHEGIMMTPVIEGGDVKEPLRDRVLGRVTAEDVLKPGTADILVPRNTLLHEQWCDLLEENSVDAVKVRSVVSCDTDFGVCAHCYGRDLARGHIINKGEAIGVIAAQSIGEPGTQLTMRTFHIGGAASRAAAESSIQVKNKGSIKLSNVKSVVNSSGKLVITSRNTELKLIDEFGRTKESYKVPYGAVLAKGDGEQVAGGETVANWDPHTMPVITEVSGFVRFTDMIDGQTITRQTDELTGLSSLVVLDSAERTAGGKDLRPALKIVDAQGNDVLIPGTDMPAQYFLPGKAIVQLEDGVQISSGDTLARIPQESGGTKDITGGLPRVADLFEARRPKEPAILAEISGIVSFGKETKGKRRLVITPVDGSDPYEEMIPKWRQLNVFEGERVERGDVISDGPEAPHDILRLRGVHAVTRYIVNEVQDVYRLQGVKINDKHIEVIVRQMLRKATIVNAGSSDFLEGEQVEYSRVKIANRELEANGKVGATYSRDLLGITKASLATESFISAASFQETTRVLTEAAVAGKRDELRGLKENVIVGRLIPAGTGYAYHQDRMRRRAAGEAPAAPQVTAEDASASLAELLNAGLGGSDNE
Chain of E. coli RNA polymerase (P0A8V2 whole entry): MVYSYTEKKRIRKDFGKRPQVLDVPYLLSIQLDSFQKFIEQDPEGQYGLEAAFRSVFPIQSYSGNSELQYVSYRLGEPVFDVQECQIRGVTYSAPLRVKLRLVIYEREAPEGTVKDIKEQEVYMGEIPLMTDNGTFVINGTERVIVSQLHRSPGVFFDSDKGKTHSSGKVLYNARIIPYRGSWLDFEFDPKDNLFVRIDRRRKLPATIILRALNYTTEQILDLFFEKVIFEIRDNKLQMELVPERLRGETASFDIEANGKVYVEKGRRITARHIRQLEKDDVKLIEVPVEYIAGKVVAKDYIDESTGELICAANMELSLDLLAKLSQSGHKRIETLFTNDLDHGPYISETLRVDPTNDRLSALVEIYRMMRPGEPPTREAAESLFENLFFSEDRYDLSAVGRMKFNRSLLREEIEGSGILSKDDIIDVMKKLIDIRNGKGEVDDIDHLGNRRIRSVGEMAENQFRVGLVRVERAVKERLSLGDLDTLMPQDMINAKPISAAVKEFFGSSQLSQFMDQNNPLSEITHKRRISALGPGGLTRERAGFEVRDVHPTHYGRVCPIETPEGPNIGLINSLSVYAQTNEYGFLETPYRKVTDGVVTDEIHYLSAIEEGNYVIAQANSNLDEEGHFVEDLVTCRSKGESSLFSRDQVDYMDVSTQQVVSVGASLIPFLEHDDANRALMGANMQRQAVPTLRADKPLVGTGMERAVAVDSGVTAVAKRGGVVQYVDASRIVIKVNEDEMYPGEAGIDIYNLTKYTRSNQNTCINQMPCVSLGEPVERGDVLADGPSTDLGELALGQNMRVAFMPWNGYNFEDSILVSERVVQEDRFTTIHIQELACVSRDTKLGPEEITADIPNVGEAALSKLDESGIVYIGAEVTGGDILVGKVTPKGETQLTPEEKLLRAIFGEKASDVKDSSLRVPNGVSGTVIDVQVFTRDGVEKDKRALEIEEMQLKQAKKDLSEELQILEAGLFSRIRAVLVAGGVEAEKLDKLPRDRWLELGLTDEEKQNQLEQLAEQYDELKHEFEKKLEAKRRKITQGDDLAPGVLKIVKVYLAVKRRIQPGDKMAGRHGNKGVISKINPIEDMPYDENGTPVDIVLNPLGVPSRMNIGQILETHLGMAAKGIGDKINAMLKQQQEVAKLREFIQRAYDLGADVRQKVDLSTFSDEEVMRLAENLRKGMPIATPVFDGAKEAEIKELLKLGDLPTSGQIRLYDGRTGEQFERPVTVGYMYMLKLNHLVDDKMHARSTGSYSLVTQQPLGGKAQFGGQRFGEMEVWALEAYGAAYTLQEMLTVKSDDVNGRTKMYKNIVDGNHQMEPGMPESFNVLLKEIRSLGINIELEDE
Chain of E. coli RNA polymerase (P0A7Z4 whole entry, further chain): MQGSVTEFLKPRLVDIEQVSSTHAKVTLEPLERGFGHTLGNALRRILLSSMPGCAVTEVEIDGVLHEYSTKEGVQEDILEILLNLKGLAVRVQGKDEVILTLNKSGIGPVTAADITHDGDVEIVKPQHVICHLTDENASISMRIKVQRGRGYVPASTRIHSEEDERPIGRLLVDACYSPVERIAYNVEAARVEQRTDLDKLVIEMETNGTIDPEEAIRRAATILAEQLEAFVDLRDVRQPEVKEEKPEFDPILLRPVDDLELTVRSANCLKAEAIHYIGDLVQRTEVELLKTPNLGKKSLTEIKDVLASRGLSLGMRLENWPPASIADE
Chain of E. coli RNA polymerase (P00579 whole entry, further chain): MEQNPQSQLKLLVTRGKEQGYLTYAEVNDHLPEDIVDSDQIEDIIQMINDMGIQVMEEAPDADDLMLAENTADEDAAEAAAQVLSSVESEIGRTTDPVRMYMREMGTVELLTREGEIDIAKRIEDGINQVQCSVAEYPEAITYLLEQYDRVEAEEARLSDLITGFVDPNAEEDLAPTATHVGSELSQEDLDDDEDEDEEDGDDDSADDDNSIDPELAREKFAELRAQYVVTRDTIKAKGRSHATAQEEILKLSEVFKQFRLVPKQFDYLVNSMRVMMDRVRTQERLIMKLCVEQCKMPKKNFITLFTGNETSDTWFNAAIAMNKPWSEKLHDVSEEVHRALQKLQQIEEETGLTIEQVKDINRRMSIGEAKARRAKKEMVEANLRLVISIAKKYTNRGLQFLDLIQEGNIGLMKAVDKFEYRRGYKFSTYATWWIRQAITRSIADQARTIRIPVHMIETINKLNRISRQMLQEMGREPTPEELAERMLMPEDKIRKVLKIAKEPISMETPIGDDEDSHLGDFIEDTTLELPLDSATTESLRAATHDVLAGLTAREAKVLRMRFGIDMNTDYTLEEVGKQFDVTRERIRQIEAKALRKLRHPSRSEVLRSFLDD
Chain of E. coli RNA polymerase (P0A800 whole entry, further chain): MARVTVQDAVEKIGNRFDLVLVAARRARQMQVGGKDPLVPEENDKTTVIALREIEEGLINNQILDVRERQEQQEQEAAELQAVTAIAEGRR

CC[C@H](C)[C@@H]1NC(=O)[C@H](CO)NC(=O)CNC(=O)[C@H](CC(=O)O)NC(=O)CNC(=O)CNC(=O)CC[C@@H](C(=O)N[C@@H](Cc2ccc(O)cc2)C(=O)N[C@@H](Cc2ccccc2)C(=O)N[C@@H](CC(N)=O)C(=O)N[C@@H](CCCNC(=N)N)C(=O)N2CCC[C@H]2C(=O)N[C@@H](CCSC)C(=O)N[C@@H](Cc2c[nH]cn2)C(=O)N[C@H](C(=O)N[C@@H](Cc2c[nH]cn2)C(=O)N[C@@H](CC(=O)O)C(=O)N[C@@H](Cc2c[nH]c3ccccc23)C(=O)N[C@@H](CCC(N)=O)C(=O)N[C@H](C(=O)N[C@@H](CCSC)C(=O)N[C@@H](CC(=O)O)C(=O)N[C@@H](CO)C(=O)NCC(=O)N[C@@H](Cc2ccc(O)cc2)C(=O)N[C@@H](Cc2ccc(O)cc2)C(=O)NCC(=O)O)[C@@H](C)CC)[C@@H](C)CC)NC(=O)[C@H](C)NC1=O [ubonodin] (GGDGSIAEYFNRPMHIHDWQIMDSGYYG-OH; lactam N-8; C-terminus assumed)
potency in abortive transcription assays relative to MccJ25 (E. coli RNA polymerase): somewhat lower than that of MccJ25
inhibition of E. coli RNA polymerase (abortive transcription initiation) (E. coli RNA polymerase; 0, 1, 10 or 100 μM peptide): inhibits transcription initiation; also recorded: able to inhibit E. coli RNAP; also recorded: inhibits E. coli RNA polymerase
activity against B. multivorans after heating (Burkholderia multivorans): maintains its activity; also recorded: loses activity
antimicrobial activity (in words) (B. pseudomallei): no activity
MIC in M63 agar [1]: 8 µM (≈ 25.6 µg/mL)
MIC in M63 agar ([1]; ATCC 17616): 7.8 µM (≈ 25 µg/mL)
MIC in M63 agar [2]: 500 µM (≈ 1600 µg/mL)
antimicrobial activity (in words) [3]: no activity
MIC in M63 agar ([3]; ATCC 10248): >500 µM
MIC in M63 agar [4]: >500 µM
MIC in M63 agar [5]: >500 µM
antimicrobial activity (in words) [6]: unable to kill
MIC in M63 agar ([6]; O157:H7): >500 µM
antimicrobial activity (in words) [7]: unable to kill
MIC in M63 agar ([7]; serovar newport): >500 µM
MIC in M63 agar [8]: >500 µM
MIC via spot-on-lawn assay (B. cepacia ATCC 25416 [9]): 40 µM (≈ 128 µg/mL)
MIC via spot-on-lawn assay [10]: 20 µM (≈ 64 µg/mL)
MIC via spot-on-lawn assay (B. mallei Old ISU [11]): 40 µM (≈ 128 µg/mL)
MIC via spot-on-lawn assay (B. mallei NVSL 86-567-2 [12]): 40 µM (≈ 128 µg/mL)
MIC via liquid growth assay (B. cepacia ATCC 25416 [13]): 4 µM (≈ 12.8 µg/mL)
MIC via liquid growth assay [14]: 31 µM (≈ 99.2 µg/mL)
MIC via liquid growth assay (B. mallei Old ISU [15]): >31 µM
MIC via liquid growth assay (B. mallei NVSL 86-567-2 [16]): >31 µM
thermal degradation by LC-MS [17]: fragments into a variety of different structures; also recorded: major species in this sample is still intact ubonodin

H17A (GGDGSIAEYFNRPMHIADWQIMDSGYYG; listed as Burkholderia ubonensis)
antimicrobial activity of purified ubonodin variants relative to wild-type [1]: near wild-type activity

citrocin
susceptibility of strain to peptide [18]: susceptible
susceptibility of strain to peptide [19]: susceptible

microcin J25 (GGAGHVPEYFVGIGTPISFYG) [MccJ25]
susceptibility of strain to peptide [18]: susceptible
susceptibility of strain to peptide [19]: susceptible
